The text below walks through data of patent US11351178B2, “Selective HDAC6 inhibitors” (ITALFARMACO S.P.A., priority 2017, dated 2022).

Data set [1] deals with CT26 tumor. The data set is described as follows: CT-26 murine model, single agents and combination with anti PD-1 (FIG. 3). It counts as in vivo, BALB/c mice. The following applies: p.o. 50 mg/Kg daily. How it is done:
FIG. 3: HDAC6 inhibitors reduces CT-26 tumor growth in vivo and their activity can be improved by combined treatment with anti PD-1 antibody. Statistics was evaluated at day 30 by Student's t test. *, P<0.05; **, P<0.01; ***, P<0.001. See text for further details. […] Adult BALB/c mice were injected s.c. with 1×10^6 CT26 tumor cells (diluted to 100 ul with phosphate-buffered saline). One week later, mice were given daily compounds 8 and 10 p.o. at 50 mg/Kg and/or injected with anti-PD1 antibody at 10 mg/Kg. At time of sacrifice, spleens were taken to analyze ex vivo, the tumor immune response. Spleen cells were stimulated with a mixture of CT-26 tumor specific peptides recognized in the context of both MHC I and MHC II. Thus, using this ex vivo stimulation, a specific tumor response mediated by CD4 and CD8 T cells can be detected.

Data set [2] is described as follows: Pharmacokinetics after single intravenous and oral administration to the mouse.
Procedure: Plasma levels and main pharmacokinetic parameters of test compounds were evaluated after single intravenous and oral administration to the mouse.
The formulations were prepared in a mixture of DMSO/PEG400/H2O. Blood was collected at the following sampling times: 5, 10, 15, 30 minutes, 1, 2, 4 and 6 hours after administration. Plasma samples (100 μL) were deproteinized by addition of 1% formic acid in ACN, then vortex mixed and centrifuged. For each sample, an aliquot of the supernatant was collected and diluted with water, filtered with 0.45 μm regenerated cellulose filter and analysed by LC-MS/MS. Plasma levels of the test compounds were calculated on a calibration curve prepared in the range 0.5-200 ng/mL.
Pharmacokinetic parameters were calculated on the mean plasma concentration curve using the software Kinetica™ v.
For data set [3], the system named is α-tubulin acetylation in 697 cell line. The data set is described as follows: In vitro α-tubulin acetylation in 697 cell line. The data set is classed as cell-based. Particulars: 16 hours, read-out: Tubulin acetylation (ratio of acetylated tubulin and total tubulin towards control); for fold induction at 0.037 µM: Conc 37 nM; for fold induction at 0.111 µM: Conc 111 nM; for fold induction at 0.333 µM: Conc 333 nM; for fold induction at 1 µM: Conc 1000 nM. As for the experimental part: (§1) The in vitro α-tubulin and H3 histone acetylation determination was evaluated on B 697 […] cell line.
(§2) The test molecules were diluted from 20 mM stock solution in DMSO with RPMI 10% FCS+0.01% DMSO medium at 20× concentration compared to the final concentration, added to the cells (15×10^6 cells in a total volume of 30 ml in RPMI medium 10% FCS+0.01% DMSO) to obtain the final concentrations of 1000, 333, 111 and 37 nM and incubated at 37° C., 5% CO2 for 16 hours.
At the end of the incubation period, 5×10^6 cells were taken from each sample, centrifuged for 5 minutes at 1100 rpm and washed in 0.9% NaCl at 4° C. The resulting pellet was lysed by treating at 4° C. for 30 minutes with 150 μl of Complete Lysis-M (Roche, cat-04719956051) containing protease inhibitors and phosphatase (Complete Easy Pack proteinase inhibitor cocktail tablets cat: 04693116001, Phostop easypack phosphatase inhibitor cocktails, cat: 01906837001—Roche), then centrifuged 10 minutes at 14,000 rpm (20817×g). 0.150 μg of supernatant (total protein extract) were diluted in 100 μl of 1×PBS and immobilized in Maxisorp F96 NUN-IMMUNO Plate (Nunc cat #5442404) at room temperature overnight. Plates were washed twice with Wash Buffer (PBS1X+0.005% tween 20) and saturated for 1 hour at room temperature with 300 μL of 1×PBS containing 10 FCS. After washing with buffer (1×PBS containing 0.005% tween), the plates were incubated for two hours at room temperature in the presence of anti-acetylated-α-tubulin antibody (Monoclonal Anti-acetylated-tubulin clone 6-11B-1, mouse ascites fluid, cat #T6793 Sigma, 100 μl diluted 1:1000 in 1×PBS containing 10% FCS) or with total anti-α-tubulin antibody (Monoclonal Anti alpha-tubulin produced in mouse, cat #T6074 Sigma). After washing, 100 μl per well of TMB substrate kit was added for 10 minutes at room temperature in the dark. The reaction was stopped by adding 50 μl of 2N H2SO4. The plates were read at Multiskan Spectrum spectrophotometer at a wavelength of 450 nm.
The degree of acetylation was calculated by dividing the absorbance obtained for acetylated α-tubulin by the absorbance of total α-tubulin.
(§3) Test results of tubulin and H3 histone acetylation, expressed as fold increase of ratio of acetylated α-tubulin/total α-tubulin and H3Ac/H3Tot, respectively, of each sample relative to the control sample (untreated) are summarized in Tables 6 and 6′.

In data set [4] the test system is H3 histone acetylation in 697 cell line. The data set is described as follows: In vitro H3 histone acetylation in 697 cell line. The data set is classed as cell-based. Particulars: 16 h, read-out: Acetylation of H3 histone (fold increase of acetylated H3/total H3 towards control); for fold induction at 0.111 µM: conc 111 nM; for fold induction at 0.333 µM: conc 333 nM; for fold induction at 1 µM: conc 1000 nM. As for the experimental part:
as §1, §2
The remaining cells (10×10^6) were treated by acid extraction of histones (Kazuhiro et al., PNAS (2002), 99 (13) 8921-8926). Cells were centrifuged 5 min at 1100 rpm at 4° C. and washed once in 0.9% NaCl. The resulting pellet was lysed with […] (10 mM Tris.HCl, pH 6.5/50 mM sodium bisulphite, 1% Triton X-100/10 mM MgCl2/8.6% saccharose containing the protease inhibitor mixture (Roche)) for 20 min at 4° C. The resulting nucleus pellet was repeatedly washed in buffer until supernatant clarification (centrifuged at 7,500×g, 5 minutes after each wash) and finally washed in nucleus buffer (10 mM Tris.HCl/13 mm EDTA, pH 7, 4) and resuspended in 250 μl of 0.2 M HCl/H2SO4. Histone proteins were extracted in an acidic environment by incubating overnight at 4° C. under gentle shaking. After centrifugation at 14,000 rpm at 4° C. for 10 minutes, 1250 μl of cold acetone was added to the supernatant and incubated overnight at −20° C., resulting in the precipitation of histone proteins. The pellet obtained after centrifugation for 10 minutes at 14000 rpm and 4° C. was washed with cold acetone, evaporated to dryness and resuspended in 50 μl distilled water. The protein content determination of both total and histone extracts was carried out by a colorimetric assay using a BCA Protein Assay Kit (Pierce cat: 23227).
H3 histone acetylation and total H3 amount were quantified by commercial ELISA assays PathScan acetylated histone H3 Sandwich Elisa kit, cat #7232C and PathScan total histone H3 Sandwich Elisa Kit, cat #7253C Cell Signaling) according to supplier reported method and by detecting absorbance at 450 nm wavelength using Multiskan Spectrum. ELISA tests were performed by analysing 0.250 μg and 0.500 μg of histone extract of each sample. The degree of acetylation was calculated by dividing H3 histone absorbance by histone total absorbance.
as §3

In general, Cmax refers to the maximum level reached in the sampled fluid or tissue. For orientation: Tmax means the time from dosing to the highest level. In general, bioavailability refers to dose-corrected exposure relative to a reference, in per cent. A higher bioavailability goes with good availability. For `O=C(NO)c1ccc(Cn2nnnc2-c2cccs2)cc1` [comp. 8, N-hydroxy-4-((5-(thiophen-2-yl)-1H-tetrazol-1-yl)methyl)benzamide], the “CT-26 tumor growth/progression, single agent” value in data set [1] is listed as “significantly reduce CT-26 tumor progression”. In addition, in data set [2] (Os, dose 5.2 mg/kg), the AUCtot was 94 ng·h/mL, the Cmax came out at 238 ng/mL and the Tmax turned out to be 4.8 min. In addition, in data set [2] (i.v., dose […]), the T1/2 turned out to be 60 min and the Vd was 15.3 L/kg. Further, in data set [2] (plasma, po, 5.2 mg/kg), the bioavailability came out at 18.5%.

Consider `O=C(NO)c1cc(F)c(Cn2nnnc2-c2cccs2)c(F)c1` [comp. 15, 3,5-difluoro-N-hydroxy-4-((5-(thiophen-2-yl)-1H-tetrazol-1-yl)methyl)benzamide], for which, in data set [3], the fold induction at 0.037 µM came to 1, the fold induction at 0.111 µM worked out at 3, the fold induction at 0.333 µM amounted to 5 and the fold induction at 1 µM was found to be 12. In data set [4], the fold induction at 0.111 µM stood at 1, the fold induction at 0.333 µM amounted to 1 and the fold induction at 1 µM came out at 1.

As a reminder, the AUC is the area under the concentration-time curve, a measure of exposure. High values mean more exposure, low ones less exposure. Broadly, the half-life is how long it takes for the measured level to halve. The low end stands for rapid decline, the high end for slow decline. On to `Cn1c(Sc2c(F)cc(C(=O)NO)cc2F)nnc1-c1cccs1` [comp. 17, 3,5-difluoro-N-hydroxy-4-((4-methyl-5-(thiophen-2-yl)-4H-1,2,4-triazol-3-yl)thio)benzamide], for which, in data set [2] (plasma, iv, 1.3 mg/kg), the AUC stood at 114 ng·h/mL, the C0 came out at 727 ng/mL, the Vd was found to be 16.8 L/kg and the clearance is 190 mL/min/kg. In data set [2] (plasma, iv, 1.3 mg/kg), this molecule gave a half-life of 60 min. Besides, in data set [2] (plasma, po, […]), the Tmax was determined as 4.8 min and the bioavailability came out at 18.4%.

For the molecule `O=C(NO)c1cc(F)c(Cn2nnc(-c3ccco3)n2)c(F)c1` [comp. 19, 3,5-difluoro-4-((5-(furan-2-yl)-2H-tetrazol-2-yl)methyl)-N-hydroxybenzamide], in data set [3], the fold induction at 0.037 µM is 7, the fold induction at 0.111 µM is 15, the fold induction at 0.333 µM was 21 and the fold induction at 1 µM was determined as 17. In data set [4], the fold induction at 0.111 µM is 1, the fold induction at 0.333 µM is 2 and the fold induction at 1 µM is 2.

On to `O=C(NO)c1cc(F)c(Cn2nnnc2-c2ncccn2)c(F)c1` [comp. 125, 3,5-difluoro-4-[(5-pyrimidin-2-yltetrazol-1-yl)methyl]benzenecarbohydroxamic acid], for which, in data set [3], the fold induction at 0.037 µM worked out at 1, the fold induction at 0.111 µM came to 3, the fold induction at 0.333 µM was found to be 6 and the fold induction at 1 µM is 14. Further, in data set [4], the fold induction at 0.111 µM is 1, the fold induction at 0.333 µM was 1 and the fold induction at 1 µM stood at 1.

As to `Cn1c(Sc2c(F)cc(C(=O)NO)cc2F)nnc1-c1cccc(CN2CCCCCC2)c1` [comp. 167, 4-[[5-[3-(azepan-1-ylmethyl)phenyl]-4-methyl-1,2,4-triazol-3-yl]sulfanyl]-3,5-difluoro-benzenecarbohydroxamic acid], in data set [3], the fold induction at 0.037 µM is 2, the fold induction at 0.111 µM was 3, the fold induction at 0.333 µM was found to be 9 and the fold induction at 1 µM came to 13. Besides, in data set [4], the fold induction at 0.111 µM is 1, the fold induction at 0.333 µM worked out at 1 and the fold induction at 1 µM was 2.

Consider `Cn1c(Sc2c(F)cc(C(=O)NO)cc2F)nnc1-c1ccc(CN2CCCCCC2)cc1` [comp. 168, 4-[[5-[4-(azepan-1-ylmethyl)phenyl]-4-methyl-1,2,4-triazol-3-yl]sulfanyl]-3,5-difluoro-benzenecarbohydroxamic acid], for which, in data set [3], the fold induction at 0.037 µM is 3, the fold induction at 0.111 µM is 11, the fold induction at 0.333 µM is 19 and the fold induction at 1 µM came out at 16. Further, in data set [4], the fold induction at 0.111 µM worked out at 1, the fold induction at 0.333 µM was 1 and the fold induction at 1 µM was found to be 2.

Regarding `Nc1ccc(-c2nnn(Cc3c(F)cc(C(=O)NO)cc3F)n2)cc1` [comp. 171, 4-[[5-(4-aminophenyl)tetrazol-2-yl]methyl]-3,5-difluoro-benzenecarbohydroxamic acid], in data set [3], the fold induction at 0.037 µM was found to be 10, the fold induction at 0.111 µM worked out at 19, the fold induction at 0.333 µM was 20 and the fold induction at 1 µM was determined as 22. The fold induction at 1 µM in data set [4] was 3.

On to `Cn1c(Sc2c(F)cc(C(=O)NO)cc2F)nnc1-c1cccnn1` [comp. 179, 3,5-difluoro-4-[(4-methyl-5-pyridazin-3-yl-1,2,4-triazol-3-yl)sulfanyl]benzenecarbohydroxamic acid], for which, in data set [3], the fold induction at 0.037 µM stood at 2, the fold induction at 0.111 µM turned out to be 7, the fold induction at 0.333 µM is 6 and the fold induction at 1 µM came out at 14. In addition, in data set [4], the fold induction at 1 µM turned out to be 1.

`Cn1c(Sc2c(F)cc(C(=O)NO)cc2F)nnc1-c1ncccc1F` [comp. 180, 3,5-difluoro-4-[[5-(3-fluoro-2-pyridyl)-4-methyl-1,2,4-triazol-3-yl]sulfanyl]benzenecarbohydroxamic acid]: in data set [3], the fold induction at 0.037 µM was 2, the fold induction at 0.111 µM turned out to be 7, the fold induction at 0.333 µM turned out to be 15 and the fold induction at 1 µM turned out to be 19. Moreover, the fold induction at 1 µM in data set [4] came out at 1.

In the case of `O=C(NO)c1cc(F)c(Cc2nnc(-c3ccncc3)s2)c(F)c1` [compound 195, 3,5-difluoro-4-[[5-(4-pyridyl)-1,3,4-thiadiazol-2-yl]methyl]benzenecarbohydroxamic acid], in data set [3], the fold induction at 0.037 µM worked out at 6, the fold induction at 0.111 µM came out at 11, the fold induction at 0.333 µM worked out at 10 and the fold induction at 1 µM was 14. Further, in data set [4], the fold induction at 0.111 µM came out at 1, the fold induction at 0.333 µM worked out at 1 and the fold induction at 1 µM is 1.
